Source: ChEMBL document CHEMBL5727507, “Substituted indole Mcl-1 inhibitors” (2020)

Each compound was assayed against Induced myeloid leukemia cell differentiation protein Mcl-1 (Homo sapiens, UniProt Q07820) (assay: Fluorescence Polarization Anisotropy Competition Assay: Compound affinity was measured using a fluorescence polarization anisotropy competition assay. Anisotropy measurements were carried out in 384-well, black, flat-bottom plates (Greiner Bio-one, Monroe, N.C., USA).).
Induced myeloid leukemia cell differentiation protein Mcl-1, sequence (Q07820 whole entry): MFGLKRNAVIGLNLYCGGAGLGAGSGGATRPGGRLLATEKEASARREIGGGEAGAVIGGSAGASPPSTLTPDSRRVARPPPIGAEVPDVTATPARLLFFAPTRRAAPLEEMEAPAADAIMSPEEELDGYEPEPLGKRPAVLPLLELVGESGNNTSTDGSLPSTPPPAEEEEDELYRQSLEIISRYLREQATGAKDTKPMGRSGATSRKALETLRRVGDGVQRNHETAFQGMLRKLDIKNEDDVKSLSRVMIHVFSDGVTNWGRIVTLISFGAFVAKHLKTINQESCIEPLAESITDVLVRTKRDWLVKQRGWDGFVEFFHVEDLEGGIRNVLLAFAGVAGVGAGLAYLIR

Ki, < 50 nM:
Cc1cc(OCCCc2c3n(c4c(-c5c(C)nn(C)c5C)c(Cl)ccc24)[C@H](C)CN(c2ccc(C(=O)O)c4ncccc24)C3=O)cc(C)c1Cl
Cc1cc(OCCCc2c3n(c4c(-c5c(C)nn(C)c5C)c(Cl)ccc24)CCCN(c2ccc(C(=O)O)c4ncccc24)C3=O)cc(C)c1Cl
Cc1cc(OCCCc2c(C(=O)N[C@H]3CC[C@@H](C(=O)O)CC3)[nH]c3c(-c4c(C)nn(C)c4C)cccc23)cc(C)c1Cl
Cc1cc(OCCCc2c(C(=O)N(C)c3ccc(C(=O)O)cc3)[nH]c3c(-c4c(C)nn(C)c4C)c(Cl)ccc23)cc(C)c1Cl
Cc1cc(OCCCc2c(C(=O)NCc3cc(C(=O)O)cc(Cl)n3)[nH]c3c(-c4c(C)nn(C)c4C)cccc23)cc(C)c1Cl
Cc1cc(OCCCc2c(C(=O)N[C@@H]3CCC[C@@H](C(=O)O)C3)[nH]c3c(-c4c(C)nn(C)c4C)cccc23)cc(C)c1Cl
Cc1cc(OCCCc2c3n(c4c(-c5c(C)nn(C)c5C)cccc24)CCCN(c2ccnc4c(C(=O)O)cccc24)C3=O)cc(C)c1Cl
Cc1cc(OCCCc2c(C(=O)N3CCN(c4ccc(C(=O)O)cc4)CC3)n(CCN3CCOCC3)c3c(-c4c(C)nn(C)c4C)c(Cl)ccc23)cc(C)c1Cl
Cc1cc(OCCCc2c3n(c4c(-c5c(C)nn(C)c5C)c(Cl)ccc24)CCCN(c2ccc(C(=O)O)c4c2ccn4C)C3=O)cc(C)c1Cl
